Laboratory results reported in patent publication US5464617A, “β-lactam compounds” (Hoffmann-La Roche Inc., priority 1994, dated 1995).
In brackets after ≈: the same amount, converted by molar mass. Structures can show the parent of a compound that is named as a salt. Where two headings read alike, the source gives them in different places.

Legend:
[1] = tested on: Citrobacter freundii 1982; test: MIC in vitro of a 1:4 combination of ceftriaxone with a compound of formula I (Test D); type: cell-based; conditions: Table 2; ceftriaxone alone (control)
[2] = tested on: Citrobacter freundii 1982; test: as above; type: cell-based; conditions: 1:4 combination of ceftriaxone with the compound; for MIC C. freundii 1982 (D): Table 4, test D
Procedure: The minimum inhibitory concentration in vitro ([…]) of a 1:4 combination of ceftriaxone with a compound of formula I against Citrobacter freundii 1982 was measured and compiled in Table 2 hereinafter.

E. coli 1346 = test: Antibacterial activity of the products per se, serial dilution method in liquid medium (Test E); type: cell-based; conditions: Table 4; test E, product per se
Description: The antibacterial activity of the products per se is illustrated on the basis of Table 3 hereinafter, the minimum inhibitory concentration […] in vitro against E. coli 1346 being determined using the serial dilution method in liquid medium: […]

β-lactamase = β-lactamase (Citrobacter freundii, UniProt P05193); test: Determination of the β-lactamase inhibiting activity (Test C): inhibition of nitrocefin cleavage by isolated β-lactamase; type: biochemical, Citrobacter freundii 1982; conditions: pH 7.0, 37° C.
Procedure: Various β-lactamases can be isolated from penicillin- or cephalosporin-resistant bacterial strains such as Klebsiella pneumoniae NCTC 418, Proteus vulgaris 1028, Bacillus licheniformis 749/C, Escherichia coli SNO1, Pseudomonas aeruginosa 18SH and Citrobacter freundii 1203. For this purpose, the corresponding strains are cultivated in Tryptic Soy Broth (Difco) and harvested by centrifugation in the last logarithmic growth phase (when necessary 50-100 mg/l of ampicillin are added to the medium towards the end of the log-phase in order to induce the β-lactamase). The thus-obtained bacterial mass is treated with 20 mM Tris-HCl buffer (pH 7.0); the cells are broken open with a French press while cooling. The mixture is centrifuged (20,000 r/min.) for 20-30 minutes and a clear crude extract is obtained. The purification of the proteins is effected according to the method of Cartwright, S. J. & Waley, S. G. [Biochem. J. 221, 505-512 (1980)] and, for B. lichenformis, Ellerby, L. M. et al. [Biochemistry 29, 5797-5806 (1990)].
The determination of the activity of the isolated β-lactamases can be carried out according to the method of O'Callaghan, C. H. et al. [Antimicr. Ag. Chemother. […] The cleavage of the substrate, which is accompanied by a change in colour, is effected at 37° C. and is followed quantitatively at 482 nm using a spectral photometer. […]

Sequence of β-lactamase (P05193 21-381): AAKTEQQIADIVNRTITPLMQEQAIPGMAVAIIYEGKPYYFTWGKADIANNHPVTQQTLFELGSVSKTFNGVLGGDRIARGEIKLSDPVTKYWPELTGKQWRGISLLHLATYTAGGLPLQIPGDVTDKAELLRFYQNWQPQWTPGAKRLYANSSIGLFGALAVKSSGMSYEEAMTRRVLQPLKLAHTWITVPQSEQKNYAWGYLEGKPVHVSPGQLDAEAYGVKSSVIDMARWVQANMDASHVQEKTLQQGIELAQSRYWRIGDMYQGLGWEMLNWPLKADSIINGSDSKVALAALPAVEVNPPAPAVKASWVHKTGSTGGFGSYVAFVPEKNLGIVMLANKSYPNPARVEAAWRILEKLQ

MIC C. freundii 1982 (D) [2] [µg/mL] | MIC E. coli 1346 (E) (E. coli 1346) | Molecule | further results
 |  | CO/N=C(\C(=O)N[C@@H]1C(=O)N2C(C(=O)O)=C(CSc3nc(=O)c(=O)[nH]n3C)CS[C@H]12)c1csc(N)n1 [Ceftriaxone, ceftriaxone] | MIC C. freundii 1982 [1]: 128 µg/mL
2 | 4 µg/mL | O=C(Nc1ccc(O)cc1)OCC1=C(C(=O)O)N2C(=O)[C@H]3NC[C@@H](C1)[C@H]32 [Example 89, (1aS,3aR,6bR)-5-(4-Hydroxy-phenylcarbamoyloxymethyl)-1-oxo-1a,2,3,3a,4,6b-hexahydro-1H-2,6a-diazacyclobut[cd]indene-6-carboxylic acid trifluoroacetate] | 
2 | 4 µg/mL | O=C(NCC(F)(F)F)OCC1=C(C(=O)O)N2C(=O)[C@H]3NC[C@@H](C1)[C@H]32 [Example 91, (1aS,3aR,6bR)-1-Oxo-5-(2,2,2-trifluoroethylcarbamoyloxymethyl)-1a,2,3,3a,4,6b-hexahydro-1H-2,6a-diazacyclobut[cd]indene-6-carboxylic acid trifluoroacetate] | 
2 | 8 µg/mL | O=C(NC1CC1)OCC1=C(C(=O)O)N2C(=O)[C@H]3NC[C@@H](C1)[C@H]32 [Example 93, (1aS,3aR,6bR)-5-Cyclopropylcarbamoyloxymethyl-1-oxo-1a,2,3,3a,4,6b-hexahydro-1H-2,6a-diazacyclobut[cd]indene-6-carboxylicacid trifluoroacetate] | 
0.5 | 4 µg/mL (≈ 12.3 µM) | NC(=O)CNC(=O)OCC1=C(C(=O)O)N2C(=O)[C@H]3NC[C@@H](C1)[C@H]32 [Example 95, (1aS,3aR,6bR)-5-Carbamoylmethylcarbamoyloxymethyl-1-oxo-1a,2,3,3a,4,6b-hexahydro-1H-2,6a-diazacyclobut[cd]indene-6-carboxylic acid trifluoroacemte] | 
1 | 4 µg/mL | CNC(=O)OCC1=C(C(=O)O)N2C(=O)[C@H]3NC[C@@H](C1)[C@H]32 [Example 97, (1aS,3aR,6bR)-5-Methylcarbamoyloxymethyl-1-oxo-1a,2,3,3a,4,6b-hexahydro-1H-2,6a-diazacyclobut[cd]indene-6-carboxylic acid trifluoroacetate] | 
2 | 4 µg/mL | O=C(NCc1ccncc1)OCC1=C(C(=O)O)N2C(=O)[C@H]3NC[C@@H](C1)[C@H]32 [Example 99, (1aS,3aR,6bR)-1-Oxo-5-(pyridin-4-ylmethylcarbamoyloxymethyl)-1a,2,3,3a,4,6b-hexahydro-1H-2,6a-diazacyclobut[cd]indene-6-carboxylic acid trifluoroacetate] | 
1 | 2 µg/mL | O=C(NCc1ccc(O)cc1)OCC1=C(C(=O)O)N2C(=O)[C@H]3NC[C@@H](C1)[C@H]32 [Example 101, (1aS,3aR,6bR)-5-[(4-Hydroxy-benzyl)-carbamoyloxymethyl]-1-oxo-1a,2,3,3a,4,6b-hexahydro-1H-2,6a-diazacyclobut[cd]indene-6-carboxylic acid trifluoroacetate] | 
2 | 1 µg/mL | CN1CCN(C(=O)OCC2=C(C(=O)O)N3C(=O)[C@H]4NC[C@@H](C2)[C@H]43)CC1 [Example 103, (1aS,3aR,6bR)-5-(4-Methyl-piperazin-1-ylcarbonyloxymethyl)-1-oxo-1a,2,3,3a,4,6b-hexahydro-1H-2,6a-diazacydobut[cd]indene-6-carboxylic acid trifluoroacetate] | 
 |  | (1aS,3aR,6bR)-2-[(R)- and [(S)-1,1-Dioxo-tetrahydrothien-3-ylcarbamoyl]-5-methylsulphonyloxy-1-oxo-1a,2,3,3a,4,6b-hexahydro-1H-2,6a-diazacyclobut[cd]indene-6-carboxylic acid sodium salt [9(g)] | MIC C. freundii 1982 ([2]; Table 2): 0.25 µg/mL; IC50 (β-lactamase; Table 1, nitrocefin substrate, 15 minutes pre-incubation of β-lactamase with inhibitor, read-out: IC 50): 0.027 µM

Molecule | MIC C. freundii 1982 (D) [2] [µg/mL] | MIC E. coli 1346 (E) (E. coli 1346) | further results
(1aS,3aR,6bS)-5-(Carbamoyloxymethyl)-2-(4-hydroxyphenylcarbamoyl)-1-oxo-1,1a,2,3,3a,6b-hexahydro-4-oxa-2,6a-diazacyclobut[cd]indene-6-carboxylic acid sodium salt [31(g)] | 16 | 0,5 μg/ml | IC50 (β-lactamase; Table 4, test C, nitrocefin, 15 minutes pre-incubation, read-out: IC 50 (C)): 51 µM
